Non-standard residues stand in square brackets, D forms with d. Residues, ends and D or L forms follow the SMILES beside them. 1Nal = N[C@@H](Cc1cccc2ccccc12)C(=O)O; 2Nal = N[C@@H](Cc1ccc2ccccc2c1)C(=O)O; αMeF = C[C@](N)(Cc1ccccc1)C(=O)O; β3hF = N[C@H](CC(=O)O)Cc1ccccc1; Cha = N[C@@H](CC1CCCCC1)C(=O)O; Tle = CC(C)(C)[C@H](N)C(=O)O; Nle = CCCC[C@H](N)C(=O)O; Ac5c = NC1(C(=O)O)CCCC1

In data set [1] the test system is Rattus norvegicus. Nature of the data set: Cardiorenal effect in Sprague-Dawley rat assessed as urinary output level at 9.9 nmol/kg/hr dosed by continuous infusion via osmotic mini pumps […] (reference value: 1.3 mL/kg/hr). In kind it is functional.
Data set [2] concerns Rattus norvegicus. Briefly: Cardiorenal effect in Sprague-Dawley rat assessed as increase left ventricular fractional shortening at 9.9 nmol/kg/hr dosed by continuous infusion via osmotic mini pumps measured after 6 hrs by echocardiography relative to base line in sham treated control. In kind it is functional.
Data set [3] has as its system Rattus norvegicus. Briefly: Cardiorenal effect in Sprague-Dawley rat assessed as increase left ventricular fractional shortening at 9.9 nmol/kg/hr dosed by continuous infusion via osmotic mini pumps measured after 24 hrs by echocardiography relative to base line in sham treated control. In kind it is functional.
Data set [4] can be described thus: Cardiorenal effect in Sprague-Dawley rat assessed as reduction in blood pressure at 72 nmol/kg, iv […]. In kind it is organism-based. The settings on record: in vivo.
Data set [5] deals with Rattus norvegicus. Nature of the data set: Cardiorenal effect in Sprague-Dawley rat assessed as water intake level at 9.9 nmol/kg/hr dosed by continuous infusion via osmotic mini pumps […] (reference value: 3.3 mL/kg/hr). In kind it is functional.
Data set [6] can be described thus: Cardiorenal effect in Sprague-Dawley rat assessed as reduction in blood pressure at 5 nmol/kg, iv […]. In kind it is organism-based. The settings on record: in vivo.
The target of data set [7] is T1, Apelin receptor (Homo sapiens, UniProt P35414).
T1 sequence (P35414 whole entry): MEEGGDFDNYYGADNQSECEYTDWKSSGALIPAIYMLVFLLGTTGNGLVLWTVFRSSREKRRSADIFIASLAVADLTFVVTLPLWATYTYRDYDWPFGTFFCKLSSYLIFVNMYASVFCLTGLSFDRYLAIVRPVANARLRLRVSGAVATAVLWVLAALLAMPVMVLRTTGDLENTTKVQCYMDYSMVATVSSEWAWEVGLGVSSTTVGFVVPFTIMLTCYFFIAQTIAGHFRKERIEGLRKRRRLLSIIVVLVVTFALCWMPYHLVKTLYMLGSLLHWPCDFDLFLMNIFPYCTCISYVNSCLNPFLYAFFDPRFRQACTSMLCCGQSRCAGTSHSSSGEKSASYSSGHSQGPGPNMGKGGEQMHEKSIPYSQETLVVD
Briefly: Agonist activity at human APJ receptor expressed in HEK293T cells co-expressing PDZ-Rho-Gef-RLucll assessed as induction of Galpha12 effector (PDZ-RhoGEF) to the cell membrane incubated for 5 mins by BRET assay. In kind it is functional, cell-based.

Data set [8] has as its target T1, Apelin receptor. Nature of the data set: Displacement of [125I] [NIe75, Tyr77]Pyr-apelin-13 from YFP-tagged human APJ receptor expressed in HEK293 cell membranes incubated for 1 hr by gamma counting based Cheng-Prusoff equation analysis.
Data set [9] has as its target T1, Apelin receptor. Nature of the data set: Agonist activity at human APJ receptor expressed in HEK293 cells co-expressing Rlucll-beta-arrestin2 assessed as induction of beta-arrestin2 recruitment to APJ incubated for 30 mins by BRET assay. In kind it is cell-based.
Data set [10] addresses T1, Apelin receptor. Nature of the data set: Agonist activity at human APJ receptor expressed in HEK293 cells co-expressing Galpha(i1)-RlucII(91) assessed as induction of dissociation of Galpha(i1) from G-beta-gamma subunits incubated for 5 mins by BRET assay. In kind it is cell-based.
In data set [11] the target is T2, Apelin receptor (Homo sapiens) (UniProt P35414).
T2 sequence (whole entry): T1 sequence (P35414 whole entry)
Briefly: Agonist activity at human APJ receptor expressed in HEK293 cells co-expressing […] assessed as induction of Galpha12 effector (PDZ-RhoGEF) to the cell membrane incubated for 5 mins by BRET assay relative to control. In kind it is functional, cell-based. The settings on record: filed as agonist.

With `CCCC[C@H](N)C(=O)N1CCC[C@H]1C(=O)N[C@@H](CC(C)C)C(=O)N[C@@H](Cc1cnc[nH]1)C(=O)N[C@@H](CO)C(=O)N[C@@H](CCCNC(=N)N)C(=O)N[C@H](C(=O)N1CCC[C@H]1C(=O)N[C@@H](Cc1ccccc1)C(=O)N1CCC[C@H]1C(=O)O)C(C)C`, the Activity in the data set on Rattus norvegicus [1] was 2.7 mL/h/kg; in the data set on Rattus norvegicus [2], 11%; in the data set on Rattus norvegicus [3], 19%; in data set [4] it was “Non-Toxic”; with Rattus norvegicus [5] it was 4.5 mL/h/kg.
On to `CSCC[C@H](NC(=O)[C@@H](NC(=O)[C@H](CC(C)C)NC(=O)[C@H](CC(N)=O)NC(=O)[C@@H](NC(=O)[C@@H]1CCCN1C(=O)[C@H](CCCNC(=N)N)NC(=O)[C@@H]1CCC(=O)N1)C(C)C)[C@@H](C)O)C(=O)N[C@@H](C)C(=O)N[C@@H](CCCNC(=N)N)C(=O)N[C@@H](CCCCN)C(=O)N[C@@H](CC(C)C)C(=O)N[C@@H](CCCNC(=N)N)C(=O)N[C@@H](CCCCN)C(=O)N[C@@H](Cc1cnc[nH]1)C(=O)N[C@@H](CC(N)=O)C(=O)N[C@H]1CSSC[C@@H](C(=O)N[C@@H](CCSC)C(=O)N2CCC[C@H]2C(=O)N[C@@H](CC(C)C)C(=O)N[C@@H](Cc2cnc[nH]2)C(=O)N[C@@H](CO)C(=O)N[C@@H](CCCNC(=N)N)C(=O)N[C@H](C(=O)N2CCC[C@H]2C(=O)N[C@@H](Cc2ccccc2)C(=O)N2CCC[C@H]2C(=O)O)C(C)C)NC(=O)[C@H](CCCNC(=N)N)NC(=O)[C@H](CCCNC(=N)N)NC(=O)[C@H](CCC(N)=O)NC(=O)[C@H](CC(C)C)NC1=O`, for which the Activity with Rattus norvegicus [1] was 3.5 mL/h/kg; in data set [6], “<= 40 mmHg”; in the data set on Rattus norvegicus [2] it was 18%; with Rattus norvegicus [3], 27%; with Rattus norvegicus [5], 5 mL/h/kg. Besides, the half-maximal effective concentration (EC50) at Apelin receptor [7] turned out to be 25 nM; at Apelin receptor [9], 45 nM; on Apelin receptor [10] it was 5.3 nM. The same molecule showed a Ki at Apelin receptor [8] of 0.19 nM.
Consider `CCCC[C@H](N)C(=O)N1CCC[C@H]1C(=O)N[C@@H](CC(C)C)C(=O)N[C@@H](Cc1cnc[nH]1)C(=O)N[C@@H](CO)C(=O)N[C@@H](CCCNC(=N)N)C(=O)N[C@H](C(=O)N1CCC[C@H]1C(=O)N[C@@H](Cc1ccccc1)C(=O)N[C@@H](Cc1cccc2ccccc12)C(=O)O)C(C)C` (H-[Nle]PLHSRVPF[1Nal]-OH), for which the EC50 on Apelin receptor [7] came to 30 nM; on Apelin receptor [9], 123 nM; on Apelin receptor [10], 4.5 nM. The inhibitory constant (Ki) at Apelin receptor [8] was 13 nM.
For the molecule `CCCC[C@H](N)C(=O)N1CCC[C@H]1C(=O)N[C@@H](CC(C)C)C(=O)N[C@@H](Cc1cnc[nH]1)C(=O)N[C@@H](CO)C(=O)N[C@@H](CCCNC(=N)N)C(=O)N[C@H](C(=O)N1CCC[C@H]1C(=O)N[C@@H](Cc1ccccc1)C(=O)N[C@@H](Cc1ccc2ccccc2c1)C(=O)O)C(C)C` (H-[Nle]PLHSRVPF[2Nal]-OH), the EC50 was determined as 37 nM on Apelin receptor [7], 107 nM at Apelin receptor [9] and 3.8 nM on Apelin receptor [10]. Further, on Apelin receptor [8], the Ki was 3.9 nM.
For `CCCC[C@H](N)C(=O)N1CCC[C@H]1C(=O)N[C@@H](CC(C)C)C(=O)N[C@@H](Cc1cnc[nH]1)C(=O)N[C@@H](CO)C(=O)N[C@@H](CCCNC(=N)N)C(=O)N[C@H](C(=O)N1CCC[C@H]1C(=O)N[C@@H](Cc1cccc2ccccc12)C(=O)N1CCC[C@H]1C(=O)O)C(C)C` (H-[Nle]PLHSRVP[1Nal]P-OH), in that order: 1040 nM, 537 nM, 23 nM and 21 nM.
With `CCCC[C@H](N)C(=O)N1CCC[C@H]1C(=O)N[C@@H](CC(C)C)C(=O)N[C@@H](Cc1cnc[nH]1)C(=O)N[C@@H](CO)C(=O)N[C@@H](CCCNC(=N)N)C(=O)N[C@H](C(=O)N1CCC[C@H]1C(=O)N[C@@H](Cc1ccc2ccccc2c1)C(=O)N1CCC[C@H]1C(=O)O)C(C)C` (H-[Nle]PLHSRVP[2Nal]P-OH), the half-maximal effective concentration (EC50) on Apelin receptor [7] came out at 152 nM; on Apelin receptor [9], 155 nM; at Apelin receptor [10], 7 nM. At Apelin receptor [8], this molecule had a Ki of 16 nM.
For the molecule `CCCC[C@H](N)C(=O)N1CCC[C@H]1C(=O)N[C@@H](CC(C)C)C(=O)N[C@@H](Cc1cnc[nH]1)C(=O)N[C@@H](CO)C(=O)N[C@@H](CCCNC(=N)N)C(=O)N[C@H](C(=O)N1CCC[C@H]1C(=O)N[C@@H](CC1CCCCC1)C(=O)N1CCC[C@H]1C(=O)O)C(C)C` (H-[Nle]PLHSRVP[Cha]P-OH), the figures for the concentration for a half-maximal effect (EC50) on Apelin receptor [7], at Apelin receptor [9] and on Apelin receptor [10] were 54 nM, 940 nM and 17 nM, respectively. The molecule also registered an inhibition constant Ki on Apelin receptor [8] of 4 nM. Moreover, the Emax in data set [11] came out at 43%.
`CCCC[C@H](N)C(=O)N1CCC[C@H]1C(=O)N[C@@H](CC(C)C)C(=O)N[C@@H](Cc1cnc[nH]1)C(=O)N[C@@H](CO)C(=O)N[C@@H](CCCNC(=N)N)C(=O)N[C@H](C(=O)N1CCC[C@H]1C(=O)N[C@H](CC(=O)O)Cc1ccccc1)C(C)C` (H-[Nle]PLHSRVP[β3hF]-OH): the EC50 on Apelin receptor [7] worked out at 740 nM; on Apelin receptor [9], 182 nM; at Apelin receptor [10] it was 5.1 nM. The inhibition constant Ki on Apelin receptor [8] came to 19 nM.
The matching figures for `CCCC[C@H](N)C(=O)N1CCC[C@H]1C(=O)NC1(C(=O)N[C@@H](Cc2cnc[nH]2)C(=O)N[C@@H](CO)C(=O)N[C@@H](CCCNC(=N)N)C(=O)N[C@H](C(=O)N2CCC[C@H]2C(=O)N[C@@H](Cc2ccccc2)C(=O)N2CCC[C@H]2C(=O)O)C(C)C)CCCC1` (H-[Nle]P[Ac5c]HSRVPFP-OH): 70 nM, 79 nM, 1.2 nM and 2.4 nM.
For `CCCC[C@H](N)C(=O)N1CCC[C@H]1C(=O)N[C@@H](CC1CCCCC1)C(=O)N[C@@H](Cc1cnc[nH]1)C(=O)N[C@@H](CO)C(=O)N[C@@H](CCCNC(=N)N)C(=O)N[C@H](C(=O)N1CCC[C@H]1C(=O)N[C@@H](Cc1ccccc1)C(=O)N1CCC[C@H]1C(=O)O)C(C)C` (H-[Nle]P[Cha]HSRVPFP-OH), in that order: 94 nM, 120 nM, 2.8 nM and 4 nM.
`CCCC[C@H](N)C(=O)N1CCC[C@H]1C(=O)N[C@H](C(=O)N[C@@H](Cc1cnc[nH]1)C(=O)N[C@@H](CO)C(=O)N[C@@H](CCCNC(=N)N)C(=O)N[C@H](C(=O)N1CCC[C@H]1C(=O)N[C@@H](Cc1ccccc1)C(=O)N1CCC[C@H]1C(=O)O)C(C)C)C(C)(C)C` (H-[Nle]P[Tle]HSRVPFP-OH): the values for the concentration giving a half-maximal response (EC50) on Apelin receptor [7], at Apelin receptor [9] and at Apelin receptor [10] were 795 nM, 401 nM and 2.4 nM, respectively. The affinity on Apelin receptor [8] corresponds to a Ki of 21 nM.
Take `CCCC[C@H](N)C(=O)N1CCC[C@H]1C(=O)N[C@@](C)(Cc1ccccc1)C(=O)N[C@@H](Cc1cnc[nH]1)C(=O)N[C@@H](CO)C(=O)N[C@@H](CCCNC(=N)N)C(=O)N[C@H](C(=O)N1CCC[C@H]1C(=O)N[C@@H](Cc1ccccc1)C(=O)N1CCC[C@H]1C(=O)O)C(C)C` (H-[Nle]P[αMeF]HSRVPFP-OH): the 50% effective concentration (EC50) at Apelin receptor [7] came out at 515 nM; at Apelin receptor [9] it was 189 nM; at Apelin receptor [10], 6.4 nM. In addition, the Ki on Apelin receptor [8] amounted to 25 nM.

The record behind these values is ChEMBL document CHEMBL4765470 (J Med Chem, 2021).
